Among the data in ChEMBL document CHEMBL1142158, “Antibacterial activity and mechanism of action of a novel anilinouracil-fluoroquinolone hybrid compound” (Antimicrob Agents Chemother, 2007) are IC50 values, retold here.

Assay [1] in a line: Inhibition of Bacillus subtilis topoisomerase 4.
The nature of assay [2]: Inhibition of Bacillus subtilis gyrase.

Broadly, the IC50 is the concentration at which inhibition is half-maximal. Lower therefore signals inhibition by little substance. As to `CCn1cc(C(=O)O)c(=O)c2ccc(C)nc21` [NALIDIXIC ACID], the half-maximal inhibitory concentration (IC50) in assay [1] stood at 1.09 mM; in assay [2], 149 µM.
